These results are taken from article PMC9143221 (Pharmaceuticals, 2022).

The test system of series [1] is Klebsiella pneumoniae E406-17.
The subject of series [2] is Staphylococcus epidermidis 1457.
The subject of series [3] is S. aureus USA300.
Series [4] relates to pseudo-EBOV (VSV-eGP).
Series [5] relates to Pseudomonas aeruginosa #2.
In series [6] the test system is pseudo-EBOV (VSV-eGP). The class given is cell-based, Ebola virus.
In series [7] the test system is Acinetobacter baumannii B28-16.
The subject of series [8] is Escherichia coli E416-7.
In series [9] the test system is SARS-CoV-2 WI. As to conditions: 2 h.
In series [10] the test system is Vero cells (ATCC, CCL-81).
Series [11] concerns all the tested antibiotic-resistant pathogens (e.g., MRSA, Escherichia coli, Pseudomonas aeruginosa, and Klebsiella pneumoniae).
Series [12] has as its system Calu-3 (ATCC, HTB-55) cells. As to conditions: 48 h.
Series [13] concerns human red blood cells. As to conditions: red cells of human.
The subject of series [14] is HaCaT cells (human keratinocytes).
Series [15] relates to BALB/c mouse red blood cells.

Values after ≈ are worked out from the molar mass of the structure shown. Read-outs that look alike come from different tables or passages of the source. Bridge positions count the residues as written; N and C are the ends. Square brackets hold non-standard residues; d marks the D form. Ends that are not written are not given here. Peptide text beside a SMILES is read from it.

Turning to `CC(C)C[C@@H](NC(=O)CN)C(=O)N[C@H](CCCNC(=N)N)C(=O)N[C@@H]1CSSC[C@H](C(=O)N[C@H](CC(C)C)C(=O)N[C@H](CC(C)C)C(=O)N[C@H](CCCNC(=N)N)C(=O)O)NC(=O)[C@@H](CCCNC(=N)N)NC(=O)CNC(=O)[C@@H](CC(C)C)NC(=O)[C@@H](CCCNC(=N)N)NC(=O)[C@@H](CCCNC(=N)N)NC(=O)[C@@H](CC(C)C)NC(=O)[C@@H](CC(C)C)NC(=O)[C@@H](CCCNC(=N)N)NC(=O)CNC(=O)[C@@H](CC(C)C)NC(=O)[C@@H](CCCNC(=N)N)NC1=O` [DDIP1] (H-G[dL][dR][dC][dR][dL]G[dR][dL][dL][dR][dR][dL]G[dR][dC][dL][dL][dR]-OH; disulfide 4-16; N-terminus assumed), in series [1], the “Minimum inhibitory concentration, Klebsiella pneumoniae E406-17” value is reported as 4 µM (≈ 9.12 µg/mL). Also, in series [2], the “Minimum inhibitory concentration, Staphylococcus epidermidis 1457” value was in the range of 4 to 8 µM. The “Minimum inhibitory concentration, S. aureus USA300” value in [3] turned out to be 4 µM (≈ 9.12 µg/mL). Besides, the “inhibition against the virus (VSV-eGP)” value in [4] (2 h, 2.5 µM) turned out to be 7%; in series [4] (2 h, 5 µM), 14%. In addition, in [5], the “Minimum inhibitory concentration, Pseudomonas aeruginosa #2” value was 4 µM (≈ 9.12 µg/mL). Moreover, the “inhibition of VSV-eGP, treated immediately after infection” value in series [6] is given as ~ 15%. In addition, the “Minimum inhibitory concentration, Acinetobacter baumannii B28-16” value in [7] fell in the range of 2 to 4 µM. Moreover, the “Minimum inhibitory concentration, Escherichia coli E416-7” value in series [8] is 2 µM (≈ 4.56 µg/mL). Further, the “inhibition of SARS-CoV-2” value is reported as 42% in [9] (5 µM) and ~ 55% in series [9] (10 µM). Also, the “Vero Cell TC50” value in [10] is listed as 13.0 µM. For the same compound, the “MIC values against all the tested antibiotic-resistant pathogens” value in series [11] is 2 to 8 µM.
`CC[C@H](C)[C@H](NC(=O)[C@H](CCCCN)NC(=O)[C@H](CCC(=O)O)NC(=O)[C@H](CCCCN)NC(=O)[C@H](CO)NC(=O)[C@H](CCCCN)NC(=O)[C@H](CCCNC(=N)N)NC(=O)[C@H](Cc1ccccc1)NC(=O)[C@H](Cc1ccccc1)NC(=O)[C@H](CC(=O)O)NC(=O)CNC(=O)[C@H](CC(C)C)NC(=O)[C@@H](N)CC(C)C)C(=O)NCC(=O)N[C@@H](CCCCN)C(=O)N[C@@H](CCC(=O)O)C(=O)N[C@@H](Cc1ccccc1)C(=O)N[C@@H](CCCCN)C(=O)N[C@@H](CCCNC(=N)N)C(=O)N[C@H](C(=O)N[C@H](C(=O)N[C@@H](CCC(N)=O)C(=O)N[C@@H](CCCNC(=N)N)C(=O)N[C@H](C(=O)N[C@@H](CCCCN)C(=O)N[C@@H](CC(=O)O)C(=O)N[C@@H](Cc1ccccc1)C(=O)N[C@@H](CC(C)C)C(=O)N[C@@H](CCCNC(=N)N)C(=O)N[C@@H](CC(N)=O)C(=O)N[C@@H](CC(C)C)C(=O)N[C@H](C(=O)N1CCC[C@H]1C(=O)N[C@@H](CCCNC(=N)N)C(=O)N[C@H](C(=O)N[C@@H](CCC(=O)O)C(=O)N[C@@H](CO)C(=O)O)[C@@H](C)O)C(C)C)[C@@H](C)CC)C(C)C)[C@@H](C)CC` [LL-37, reference compound]: in [12], the “Calu3 Cell TC50” value amounted to 19.1 µM. The “inhibition of VSV-eGP (in words)” value in series [4] is reported as “higher viral inhibition than DDIP1”. Moreover, the “inhibition of VSV-eGP, treated immediately after infection” value in series [6] is recorded as 9%. For the same compound, the “inhibition of SARS-CoV-2” value in series [9] (5 µM) is on record as 18%; in [9] (10 µM) it was ~ 27%.
For the compound RWLRGLLSGLLR-NH2 [DFTavP3], in series [1], the “Minimum inhibitory concentration, Klebsiella pneumoniae E406-17” value was 8 µM. In [2], the “Minimum inhibitory concentration, Staphylococcus epidermidis 1457” value was determined as 8 µM. Moreover, in series [3], the “Minimum inhibitory concentration, S. aureus USA300” value is 4 µM. For the same compound, the “Minimum inhibitory concentration, Pseudomonas aeruginosa #2” value in [5] is 4 to 8 µM. For the same compound, the “Minimum inhibitory concentration, Acinetobacter baumannii B28-16” value in [7] turned out to be 4 µM. For the same compound, in series [8], the “Minimum inhibitory concentration, Escherichia coli E416-7” value lay in the range of 2 to 4 µM. Besides, the “hRBC HC50 (50% hemolytic concentration)” value in series [13] was 50 µM.
On to RWLRGLLSGLLRRLLS-NH2 [DFTavP2], for which, in series [1], the “Minimum inhibitory concentration, Klebsiella pneumoniae E406-17” value is given as 4 µM. In addition, the “Minimum inhibitory concentration, Staphylococcus epidermidis 1457” value in series [2] is on record as 2 µM. In addition, the “Minimum inhibitory concentration, S. aureus USA300” value in [3] is 4 µM. In [4] (2 h, 5 µM), the “decrease in the viral inhibition compared to DFTavP1” value came out at 33%. In addition, the “Minimum inhibitory concentration, Pseudomonas aeruginosa #2” value in [5] is given as 8 µM. Also, the “Minimum inhibitory concentration, Acinetobacter baumannii B28-16” value in series [7] worked out at 2 µM. In series [8], the “Minimum inhibitory concentration, Escherichia coli E416-7” value turned out to be 4 µM. For the same compound, the “hRBC HC50 (50% hemolytic concentration)” value in [13] is “below 12.5 µM”.
As to RWLRGLLSGLLRRLLSGLLL-NH2 [DFTavP1], the “HaCaT TC50 (peptide concentration that killed 50% of human keratinocytes)” value in [14] was 25 µM. In [1], the “Minimum inhibitory concentration, Klebsiella pneumoniae E406-17” value was in the range of 16 to 32 µM. Moreover, the “Minimum inhibitory concentration, Staphylococcus epidermidis 1457” value in series [2] was in the range of 8 to 16 µM. For the same compound, the “Minimum inhibitory concentration, S. aureus USA300” value in [3] fell in the range of 8 to 16 µM. Besides, in series [4] (2 h, 2.5 µM), the “higher inhibition than LL-37” value is 18%. The “Minimum inhibitory concentration, Pseudomonas aeruginosa #2” value in series [5] was 32 µM. Besides, the “hemolysis of murine red blood cells (in words)” value in series [15] is “highly hemolytic”. The “mRBC HC50” value in [15] (red cells of mouse) is given as <10 µM. Besides, the “Minimum inhibitory concentration, Acinetobacter baumannii B28-16” value in series [7] is 8 µM. Further, the “Minimum inhibitory concentration, Escherichia coli E416-7” value in [8] is 16 µM.
In the case of RWVRGVVSGVVRRVVS-NH2 [DFTavP4], the “Minimum inhibitory concentration, S. aureus USA300” value in [3] is reported as >64 µM. Further, in [8], the “Minimum inhibitory concentration, Escherichia coli E416-7” value was 16 µM.
